The test system of one test is P. falciparum. The experiment in a line: Growth inhibition test of P. falciparum. To be noted: for Chemotherapeutic coefficient IC50/EC50: IC50 of mouse FM3A cells / EC50 of P. falciparum, index of selective toxicity; for EC50: Plasmodium falciparum. The test is classed as cell-based, Plasmodium falciparum. How it is done:
P. Falciparum FCR-3 strain (ATCC30932) and P. Falciparum Honduras-i strain (ATCC30935), both of which are Plasmodium falciparum, were used as test malaria parasites for measuring antimalarial activity. A filter-sterilized RPMI1640 medium was adjusted to be pH 7.4 and added with human serum such that the serum made up 10% of the medium, and used as a test medium. The above-mentioned P. falciparum were cultured in O2at a concentration of 5%, CO2 at a concentration of 5% and N2 at a concentration of 90%, at a temperature of 36.5° C. Hematocrit value (ratio of volume of erythrocytes in erythrocyte suspension) used was adjusted to be 5%. Initial infection rate of P. falciparum at the beginning of culture was adjusted to be 0.1%. A 24-well plate was used for culture and a medium was replaced everyday, and cultures were transferred at infection rate of 4%. A thin-layer smear was constructed and subjected to Giemsa staining which had been originally developed for malarial test, or Diff-Qick staining, and followed by measurement under a microscope (oil immersion, 1000×), and then infection rate of P. falciparum was calculated according to a formula mentioned below. [formula]
Cultured erythrocytes infected with P. falciparum were gathered by centrifugation and washed with a medium containing serum, then noninfected erythrocytes were added, and a culture liquid for P. falciparum at initial infection rate of 0.3% was prepared. Hematocrit value in this case was adjusted to be 3%. The compound according to the present invention used for a test and represented by the formula (II) and […] of positive control drug (quinine, artemisinin, artesunate, mefloquine) were dissolved into sterilized water, N,N-dimethylformamide (DMF) or dimethylsulfoxide (DMSO), and a sample solution at prescribed concentration was prepared. 5 to 10 μl of the sample solution was added to each well of a 24-well plate. The sample solution was duplicated or triplicated. For control, sterilized water, DMF or DMSO was added by 10 μl per well. Next, the above-mentioned culture liquid for P. falciparum prepared to be at initial infection rate of 0.3% was added by 990 to 995 μl each, and uniformly suspended in media by pipetting gently. After cultured for 72 hours in a CO2—O2—N2 (5%, 5%, 90%) incubator, a thin-layer smear was constructed for each well of the culture plate, Giemsa staining or Diff-Qick staining was conducted, followed by measurement under a microscope (oil immersion, 1000×), and then infection rates of P. falciparum in a group supplemented with a test liquid and in controls were calculated. The growth inhibition rate was calculated according to a formula mentioned below based on the infection rate of P. falciparum as calculated above, and 50% growth inhibitory concentration (EC50) was calculated. [formula] […]
a: initial infection rate b: infection rate of a sample solution after 72 hours c: infection rate of a control after 72 hours
Antimalarial activity of a sample was evaluated based on EC50 and IC50 values of the sample of P. falciparum and mouse FM3A cells. Chemotherapeutic coefficient used as an index of selective toxicity against P falciparum was calculated by a formula mentioned below and drug efficacy was assessed. [formula]

The test system of the next test is mouse FM3A cells. In words: Growth inhibition test of mouse FM3A cells. The test is classed as cell-based. To be noted: for IC50: read-out: 50% growth inhibitory concentration IC50. How it is done:
An F28-7 strain, a wild-type strain of mouse breast cancer-derived FM3A cells was used. Immobilized fetal bovine serum was added to an ES medium such that the serum made up 2% of the medium, and culture was conducted in CO2 at a concentration of 5%, and at 37° C. Doubling time of the F28-7 strain of FM3A cells under this condition was about 12 hours. Cells which had been precultured and entered to logarithmic growth phase were diluted to be 5×10^4 cells/ml in the medium. The same sample solution as in the above-mentioned Example 2-2 was used. 5 to 10 μl of the sample solution was added to each well of a 24-well plate (when medium and the like were added, the final concentration became 1×10^−4˜1×10^−5 M). The sample solution was duplicated or triplicated, and wells added with 10 μl of sterilized water, DMF or DMSO were prepared at the same time as controls. Next, a prepared suspension of cultured cells was added by 990 to 995 μl each, and uniformly suspended in media by pipetting gently. After cultured for 48 hours, the number of cells in each well was counted by a cell counter (CC-108; Toa. Medical Electrics), and growth rate was calculated by a formula mentioned below and 50% growth inhibitory rate (IC50) was calculated. The cell proliferation inhibiting activity was calculated according to the number of cells in wells supplemented with the sample solution and in controls. […] on this, cell toxicity of the sample was evaluated. [formula]
A: the number of cells at the beginning
B: the number of cells in a control after 2 days
C: the number of cells 2 days after supplementation of a sample

[1] abbreviates: Erythrocyte, P. falciparum in human erythrocytes, cultured for 72 hours, infection rate by smear staining, read-out: 50% growth inhibitory concentration EC50.
Where [2] appears, read: F28-7 strain of mouse breast cancer-derived FM3A cells, cultured for 48 hours, cell count.

Read-outs that look alike come from different tables or passages of the source.

For `C[C@@H]1CC[C@H]2[C@@H](C)C(=O)O[C@@H]3O[C@@]4(C)CC[C@@H]1[C@]32OO4` [Artemisinin, artemisinin], the “Chemotherapeutic coefficient IC50/EC50” value with P. falciparum is 1,300. In the test with P. falciparum (setting [1]), the EC50 came to 7.9 nM. Further, the IC50 with mouse FM3A cells (setting [2]) came out at 10000 nM.

`C[C@H]1[C@H](OC(=O)CCC(=O)O)O[C@@H]2O[C@@]3(C)CC[C@H]4[C@H](C)CC[C@@H]1[C@@]24OO3` [Artesunate, artesunate]: the “Chemotherapeutic coefficient IC50/EC50” value in the test with P. falciparum is given as 180. Further, the EC50 in the test with P. falciparum (Erythrocyte, 72 h, read-out: 50% growth inhibitory concentration EC50) turned out to be 17 nM. In the test on mouse FM3A cells (Mus musculus, FM3A, 48 h), the IC50 was determined as 3000 nM.

Consider `COC(=O)C(C)C1CCC(=O)C2CCC3(C)OOC21C(O)O3` (stereo not drawn) [Compound of the present invention, 12-hidroxy-2-(1-methoxycarbonylethyl)-5-oxo-10,11,13-trioxatricyclo[7.2.0.0^1,6]tridecane], for which the “Chemotherapeutic coefficient IC50/EC50” value with P. falciparum is >1,000. For the same molecule, the “selective toxicity against P. falciparum compared with that against mouse FA3A cells” value in the test on P. falciparum (P. falciparum versus mouse FA3A cells) is recorded as “more than 1,000 times”. Moreover, the EC50 with P. falciparum (setting [1]) and with P. falciparum (read-out: inhibits the growth of drug-resistant P. falciparum at a mol concentration of) was 39 nM in each case. The IC50 with mouse FM3A cells (setting [2]) is not below 24000 nM. Besides, the growth result in the test on mouse FM3A cells (mouse FM3A cells, printed below the IC50 cell 2.4 × 10^−5 M) is on record as “(78% growth)”.

As for `OC(c1cc(C(F)(F)F)nc2c(C(F)(F)F)cccc12)C1CCCCN1` (stereo not drawn) [Mefloquine, mefloquine], the “Chemotherapeutic coefficient IC50/EC50” value in the test on P. falciparum was 90. Moreover, the EC50 in the test with P. falciparum (setting [1]) stood at 32 nM. For the same molecule, the IC50 in the test on mouse FM3A cells (setting [2]) worked out at 2900 nM.

For the molecule `C=C[C@H]1C[N@@]2CC[C@H]1C[C@H]2[C@H](O)c1ccnc2ccc(OC)cc12` [Quinine, quinine], the “Chemotherapeutic coefficient IC50/EC50” value in the test with P. falciparum was 910. The EC50 in the test with P. falciparum (setting [1]) is 110 nM. In addition, the IC50 in the test with mouse FM3A cells (setting [2]) is 100000 nM.

The values are drawn from patent US6710074B2, “Compound having antimalarial activity” (Japan Science and Technology Corporation, priority 2000, dated 2004).
